The test system of series [1] is CD3+ lymphocytes. In words: cells. It is filed as cell-based, human. To be noted: for % Inhibition of cell migration compared to control, CD3+: normalized to untreated control, mean ± SEM of 4-6 experiments. How it is done:
1 Transwell-based migration assay to study lymphocyte transendothelial migration. (A) The general principle of the transwell migration assay is depicted. Endothelial cells (EC) are seeded in transwell inserts and are incubated for 2 days to form an EC monolayer. On the day before the assay, the ECs are cytokine-stimulated to induce the expression of adhesion molecules. In the migration assay, human peripheral blood mononuclear cells (PBMC) are placed into the donor compartment of the transwell setup. After 4 h of incubation time, the migrated cells are harvested from the receiver compartment, stained with fluorescent antibodies and counted using flow cytometry. (B) PBMCs were preincubated with S1P for 1.5 h and then transferred into the donor compartment on top of the EC monolayer. […] Data are shown as mean ± SD of 3 to 5 independent experiments.
(§1) Transwell migration assays were performed similarly as published previously. HMEC-1 cells were seeded at a density of 75,000 cells per well in transwell inserts. Three days after cell seeding, the medium was changed, and the cells were stimulated with 100 ng/mL TNF-α and 20 ng/mL IFN-γ for 16–18 h. On the day of the assay, cells were washed with migration medium (serum-free RPMI medium supplemented with 0.1% BSA) to remove residual cytokines and starved for at least 1 h at 37 °C in migration medium. PBMC were starved for at least 1.5 h in migration medium before addition to the EC. For S1P and lifitegrast-treated samples, the PBMC were preincubated for at least 1.5 h at 37 °C with the ligands before addition to the EC. Pepitem and other peptides were added onto the EC monolayer and preincubated for 15–30 min at 37 °C before the addition of the PBMC. 200,000 PBMC per well were added directly on top of the EC prestimulated with pepitem or other peptides to reach a final volume of 150 μL in the donor compartments. The receiver compartments of the wells were filled with 600 μL RPMI with 20% FBS. After 4 h of migration at 37 °C, the receiver compartment with the migrated cells was collected. The migrated cells were stained with the indicated antibodies: CD3-APC (clone: OKT3, lot: B400127), CD4-PE (clone: OKT4. lot: B379180), CD8-FITC (clone: HIT8a, lot: B370193) from Biolegend and CD3-VioGreen (clone: REA613, lot: 5240502518), CD45RO-FITC (clone: REA611, lot: 5240502519), CD4-PerCP-Vio700 (clone: REA623, lot: 5240506702), CXCR3 PE-Vio615 (clone: REA232, lot: 5240506722), CD196-APC (clone: REA190, lot: 5240506717), CD8-APC-Vio770 (clone: REA734, lot: 5240303993) and CD45RO-PEVio616 (clone: REA611, lot: 5231102514) from Miltenyi Biotec (Bergisch Gladbach, Germany) and counted using precision counting beads (Biolegend) on a CytoflexS flow cytometer (BeckmanCoulter). Data was analyzed using CytExpert (Version 2.4). T cells were gated as CD3^+ cells, T cell subsets were gated as CD4^+ (CD3^+, CD4^+), CD8^+ (CD3^+, CD8^+), memory CD4^+ (CD3^+, CD4^+, CD45RO^+), memory CD8^+ (CD3^+, CD8^+, CD45RO^+) and Th1 cells (CD3^+, CD4^+, CXCR3^+, CCR6^–).
(§2) Data were analyzed using GraphPad Prism software. EC50 values were calculated by three-parameter nonlinear regression analysis. For this, the data points were normalized to the number of migrated cells in untreated (buffer) control samples (100%), and the regression was fitted with the top constraint to 100 and the slope fixed to 1. Statistical significance is indicated in graphs as n.s. not significant, * p < 0.05; ** p < 0.01; *** p < 0.001. The statistical tests used are indicated in the respective figure captions.

In series [2] the test system is CD4+ lymphocytes (CD3+, CD4+). It is filed as cell-based, human. To be noted: normalized to untreated control, mean ± SEM of 4-6 experiments. How it is done: as §1, §2
Series [3] has as its system CD8+ lymphocytes (CD3+, CD8+). Format: cell-based, human. To be noted: normalized to untreated control, mean ± SEM of 4-6 experiments. The protocol: as §1, §2
In series [4] the test system is memory CD4+ cells (CD3+, CD4+, CD45RO+). It is filed as cell-based, human. The settings on record: normalized to untreated control, mean ± SEM of 4-6 experiments. The protocol: as §1, §2
Series [5] concerns memory CD8+ cells (CD3+, CD8+, CD45RO+). Format: cell-based, human. The settings on record: normalized to untreated control, mean ± SEM of 4-6 experiments. How it is done: as §1, §2
Series [6] in a line: Serum stability assay. It is filed as in vitro ADME. To be noted: human serum of healthy donors, lipids removed by centrifugation, 37 °C, peptide 30-60 μM from 10-fold stock in PBS, followed over 48 h, urea/TFA quench, analytical RP-HPLC peak area vs time 0, one-phase decay fit, mean ± SD, n = 2 (pepitem n = 5); for half-life: read-out: Serum t 1/2 (converted). The protocol: Stability of peptides in human serum was measured similarly to that previously described. In short, fresh blood from healthy donors was collected in serum collection tubes (Clot Activator Tube, Becton Dickinson, Plymouth, United Kingdom, […]) and incubated at 4 °C for 2 h to allow blood clotting. The serum was separated by centrifugation at 1000 × g for 10 min. To remove lipids from the serum, an additional centrifugation step was performed at 15,000 × g for 15 min at 4 °C, after which the serum was used for the stability assays. For this, the serum was prewarmed for 10 min at 37 °C before the addition of the test compounds. Peptides were prepared at a 10-fold concentration in PBS and diluted to a final concentration between 60 and 30 μM with the serum. The serum-peptide reaction mix was incubated at 37 °C, and 40 μL aliquots were taken at the indicated time points. To stop the reaction, samples were mixed with 40 μL of 6 M urea for 10 min on ice, followed by precipitation of serum proteins by the addition of 40 μL of 20% TFA and incubation for at least 10 min on ice. The precipitate was pelleted at 15,000 × g for 15 min, and 90 μL of the supernatant was freeze-dried. The dry material was resuspended in HPLC solvent A (0.1% TFA in ddH2O). Peptide quantification was performed using analytical HPLC. The remaining peptide relative to the starting point (time point 0) was calculated by peak integration to determine the area under the peak at the designated time points and further calculated in comparison to time point 0 min, which was set as 100%. To calculate the half-life of the peptides in human serum, data points were fitted with a one-phase decay equation.

Where [7] appears, read: Homo sapiens, Lymphocyte, PBMC preincubated with ligand for 1.5 h, then added onto EC monolayer, 4 h migration, mean ± SD, 3 or more experiments, read-out: EC50, inhibition of CD3+ cell migration.

Like-named read-outs stand apart in the source and are kept apart here. Positions of bridges follow the written chain, without caps; N, C: chain ends. Non-standard residues stand in square brackets, D forms with d. Residues, ends and D or L forms follow the SMILES beside them. No end group written: not given here. Nle = CCCC[C@H](N)C(=O)O

`CS(=O)(=O)c1cccc(C[C@H](NC(=O)c2c(Cl)cc3c(c2Cl)CCN(C(=O)c2ccc4ccoc4c2)C3)C(=O)O)c1` [lifitegrast, reference compound]: in series [1] (setting [7]), the EC50 amounted to 2.2 ± 3.6 nM.

As to `CCCC[C@@H]1NC(=O)[C@H](C(C)C)NC(=O)[C@H](CCCCN)NC(=O)[C@@H](NC(=O)[C@H](CCC(N)=O)NC(=O)[C@H](CCC(=O)O)NC(C)=O)CSSC[C@@H](C(=O)N[C@@H](CCC(=O)O)C(=O)N[C@@H](CCCCN)C(N)=O)NC(=O)[C@H](CC(N)=O)NC(=O)[C@H](CC(=O)O)NC(=O)[C@H](CC(C)C)NC(=O)[C@@H]2CSSC[C@H](NC1=O)C(=O)N[C@@H](Cc1ccc(O)cc1)C(=O)N[C@@H](CCC(=O)O)C(=O)N[C@@H](CCC(N)=O)C(=O)NCC(=O)N[C@@H](C)C(=O)N[C@@H](CCC(=O)O)C(=O)N[C@@H](CC(C)C)C(=O)N1CCC[C@H]1C(=O)N[C@@H](CCC(=O)O)C(=O)N[C@@H](CC(C)C)C(=O)N[C@@H](CC(C)C)C(=O)N[C@@H](CCCNC(=N)N)C(=O)N[C@@H](CCCNC(=N)N)C(=O)N2` [VhTI-pep 3] (Ac-EQCKV[Nle]CYEQGAELPELLRRCLDNCEK-NH2; disulfide 3-25, 7-21), the “% Inhibition of cell migration compared to control, CD3+” value (“% Inhibition of cell migration … CD3+” for short) is 1.5 ± 7.6% in series [1] (0.1 μM) and 4.6 ± 10.6% in series [1] (1 μM). In addition, the “% Inhibition of cell migration compared to control, CD4+” value (“% Inhibition … to control, CD4+” below) is given as “–8.9 ± 18.1%” in series [2] (0.1 μM) and 10.8 ± 10.1% in series [2] (1 μM). The “% Inhibition of cell migration compared to control, CD8+” value (“% Inhibition … to control, CD8+” for short) worked out at 10.4 ± 11.2% in series [3] (0.1 μM) and 14.0 ± 13.8% in series [3] (1 μM). The “% Inhibition of cell migration compared to control, Memory CD4+” value (from here on “% Inhibition of cell migration … Memory CD4+”) in series [4] (0.1 μM) was “–8.7 ± 3.4%”; in series [4] (1 μM) it was 11.7 ± 10.6%. Also, the “% Inhibition of cell migration compared to control, Memory CD8+” value (shortened to “% Inhibition of cell migration … Memory CD8+”) was found to be 3.9 ± 9.7% in series [5] (0.1 μM) and 3.0 ± 11.6% in series [5] (1 μM). Moreover, the half-life in series [6] was more than 48 h.

As to `CCCCCCCCCCCCC/C=C/[C@@H](O)[C@@H](N)COP(=O)(O)O` [Sphingosine-1-phosphate, reference compound], the EC50 in series [1] (setting [7]) was determined as 54.6 ± 49.1 nM.

As for `CCCC[C@@H]1NC(=O)[C@H](C(C)C)NC(=O)[C@H](CCCCN)NC(=O)[C@@H](NC(=O)[C@H](CCC(N)=O)NC(=O)[C@H](CCC(=O)O)NC(C)=O)CSSC[C@@H](C(=O)N[C@@H](CCC(=O)O)C(=O)N[C@@H](CCCCN)C(N)=O)NC(=O)[C@H](CC(N)=O)NC(=O)[C@H](CC(=O)O)NC(=O)[C@H](CC(C)C)NC(=O)[C@@H]2CSSC[C@H](NC1=O)C(=O)N[C@@H](Cc1ccc(O)cc1)C(=O)N[C@@H](CCC(N)=O)C(=O)NCC(=O)N[C@@H](C)C(=O)N[C@@H](CCC(=O)O)C(=O)N[C@@H](CC(C)C)C(=O)N[C@@H](CO)C(=O)N1CCC[C@H]1C(=O)N[C@@H](CCC(=O)O)C(=O)N[C@@H](CC(C)C)C(=O)N[C@@H](CC(C)C)C(=O)N[C@@H](CCCNC(=N)N)C(=O)N[C@@H](CCCNC(=N)N)C(=O)N2` [VhTI-pep 4] (Ac-EQCKV[Nle]CYQGAELSPELLRRCLDNCEK-NH2; disulfide 3-25, 7-21), the “% Inhibition of cell migration … CD3+” value was 16.7 ± 11.0% in series [1] (0.1 μM) and 24.4 ± 8.0% in series [1] (1 μM). The results for the “% Inhibition … to control, CD4+” value in series [2] (0.1 μM) and in series [2] (1 μM) were 16.5 ± 7.3% and 24.5 ± 5.9%, respectively. For the same molecule, the “% Inhibition … to control, CD8+” value in series [3] (0.1 μM) is reported as 19.5 ± 20.2%; in series [3] (1 μM), 26.0 ± 10.7%. Besides, the results for the “% Inhibition of cell migration … Memory CD4+” value in series [4] (0.1 μM) and in series [4] (1 μM) were 12.9 ± 11.0% and 27.2 ± 7.8%, respectively. Besides, the entries for the “% Inhibition of cell migration … Memory CD8+” value in series [5] (0.1 μM) and in series [5] (1 μM) were 27.9 ± 3.8% and 19.7 ± 7.9%, respectively. The half-life in series [6] is more than 48 h.

As to `CCCC[C@@H]1NC(=O)[C@H](C(C)C)NC(=O)[C@H](CCCCN)NC(=O)[C@@H](NC(=O)[C@H](CCC(N)=O)NC(=O)[C@H](CCC(=O)O)NC(C)=O)CSSC[C@@H](C(=O)N[C@@H](CCC(=O)O)C(=O)N[C@@H](CCCCN)C(N)=O)NC(=O)[C@H](CC(N)=O)NC(=O)[C@H](CC(=O)O)NC(=O)[C@H](CC(C)C)NC(=O)[C@@H]2CSSC[C@H](NC1=O)C(=O)N[C@@H](Cc1ccc(O)cc1)C(=O)N[C@@H](C)C(=O)N[C@@H](CCC(N)=O)C(=O)NCC(=O)N[C@@H](C)C(=O)N[C@@H](CCC(=O)O)C(=O)N[C@@H](CC(C)C)C(=O)N[C@@H](CO)C(=O)N1CCC[C@H]1C(=O)N[C@@H](CCC(=O)O)C(=O)N[C@@H](CC(C)C)C(=O)N[C@@H](CC(C)C)C(=O)N[C@@H](CCCNC(=N)N)C(=O)N[C@@H](CCCNC(=N)N)C(=O)N2` [VhTI-pep 1] (Ac-EQCKV[Nle]CYAQGAELSPELLRRCLDNCEK-NH2; disulfide 3-26, 7-22), the “% Inhibition of cell migration … CD3+” value in series [1] (0.1 μM) is 25.6 ± 6.4%; in series [1] (1 μM), 33.4 ± 8.5%. The “% Inhibition … to control, CD4+” value in series [2] (0.1 μM) came out at 23.5 ± 9.7%; in series [2] (1 μM), 30.3 ± 14.7%. Further, the “% Inhibition … to control, CD8+” value in series [3] (0.1 μM) is on record as 34.6 ± 8.0%; in series [3] (1 μM), 38.4 ± 2.4%. Moreover, the figures for the “% Inhibition of cell migration … Memory CD4+” value in series [4] (0.1 μM) and in series [4] (1 μM) were 15.1 ± 14.2% and 39.5 ± 11.6%, respectively. Moreover, the results for the “% Inhibition of cell migration … Memory CD8+” value in series [5] (0.1 μM) and in series [5] (1 μM) were 21.2 ± 3.1% and 29.6 ± 6.7%, respectively. In addition, in series [6], the half-life was more than 48 h.

The molecule “SVTEQGAELSNEER [Pepitem, reference compound]” registered an EC50 in series [1] (4 h) of 6 ± 6.4 nM. In series [6], the “Serum t 1/2” value is recorded as 3.1 ± 0.5 h and the half-life was approximately 3 h.

(Values after PMC12406255, “Engineering Peptide Modulators for T‑Cell Migration by Structural Scaffold Matching” (Journal of Medicinal Chemistry, 2025).)
